From patent US20160200743A1, “BORON-CONTAINING SMALL MOLECULES AS ANTI-INFLAMMATORY AGENTS” (ANACOR PHARMACEUTICALS, INC., priority 2013, published 2016) come the findings set out here.

By IC50 is commonly meant the concentration needed to halve the response being measured.

The target in this assay is Human PDE4 (PDE4B2 truncated) (Homo sapiens, UniProt Q07343). The assay is described as follows: Measurement of Phosphodiesterase 4 (PDE4) inhibition, zinc and barium precipitation method with 3H-cAMP. The class given is biochemical. Conditions: PDE4B2 truncated catalytic domain, 0.3 pM enzyme, 20 min pre-incubation, 30° C. for 6 minutes. On the procedure: Human PDE4 enzymatic activity was assayed using the zinc and barium precipitation method of Saldou, N. et at (1998: Cell Signal, vol 10, No. 6, pp 427-440). The assay was performed in 96-well v-bottom plates (BrandPlates, Wertheim, Germany). PDE4B2 truncated is the catalytic domain including the UCR2 and a portion of the UCR1 domain of PDE4B2 (23.4 mg/mL) from Proteros Biostructures. Final concentration of enzyme in the assay was 0.3 pM. Stocks of the tested compounds were prepared in 100% DMSO at a concentration of 40 mM. The 105-μL reaction volume consisted of 45 mM Tris-HCl, pH 7.5, 12.5 mM MgSO4, 1.5 μM […] (Sigma, St Louis, Mo.) supplemented with 0.15 μM ^3H-cAMP (Perkin Elmer, Waltham, Mass.). Compounds were pre-incubated with enzyme at room temperature for 20 min prior to initiating the reaction by adding substrate (cAMP supplemented with ^3H-cAMP). After incubation at 30° C. for 6 minutes, the reaction was stopped by the addition of 50 μL fresh made 21.5 mM ZnSO4.7H2O (Alfa Aesar, Ward Hill, Mass.) containing 5 mM AMP as a co-precipitant. Total AMP was precipitated by the addition of 50 μL 17.5 mM Ba(OH)2, prepared fresh daily in autoclaved MilliQ water. 180 uL of well-mixed precipitate was transferred and collected by filtration (Millipore Multiscreen; MSFBN6B50). The plates were washed five times with cold wash solution (1 mM NaOH, 100 mM NaCl) and dried for 30 min to 1 hour at 65±10° C. or overnight at room temperature. The bottoms of plates were sealed with clear tapes (Millipore Co-operation, Billerica, Mass.) and 50±10 μL of scintillation cocktail (Perkin Elmer Waltham, Mass.) was added. The plates were top sealed and radioactivity was measured with scintillation counter.
Chain of Human PDE4 (PDE4B2 truncated) (Q07343 212-659 limits assumed): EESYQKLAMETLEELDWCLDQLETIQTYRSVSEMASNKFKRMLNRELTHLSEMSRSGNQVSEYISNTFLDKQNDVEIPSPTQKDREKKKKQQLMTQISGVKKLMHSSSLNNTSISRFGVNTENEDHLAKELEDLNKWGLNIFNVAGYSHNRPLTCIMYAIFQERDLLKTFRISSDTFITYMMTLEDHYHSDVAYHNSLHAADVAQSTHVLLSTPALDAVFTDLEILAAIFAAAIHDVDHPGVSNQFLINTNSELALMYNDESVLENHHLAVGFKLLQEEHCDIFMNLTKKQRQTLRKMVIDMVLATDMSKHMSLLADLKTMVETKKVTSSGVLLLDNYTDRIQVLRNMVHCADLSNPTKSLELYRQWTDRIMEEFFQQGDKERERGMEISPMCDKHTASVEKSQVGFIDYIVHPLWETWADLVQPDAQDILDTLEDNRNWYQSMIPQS
Regarding `N#Cc1ccc(C(=O)c2ccc3c(c2)COB3O)cc1` [A, 4-(1-hydroxy-1,3-dihydrobenzo[c][1,2]oxaborole-5-carbonyl)benzonitrile], the IC50 was determined as 427 nM. `N#Cc1ccc(C(O)c2ccc3c(c2)COB3O)cc1` (stereo not drawn) [B, 4-(hydroxy(1-hydroxy-1,3-dihydrobenzo[c][1,2]oxaborol-5-yl)methyl)benzonitrile] gave an IC50 of 3090 nM. In turn, `N#Cc1ccc([S+]([O-])c2ccc3c(c2)COB3O)cc1` (stereo not drawn) [D, 4-(1-hydroxy-1,3-dihydrobenzo[c][1,2]oxaborol-5-ylsulfinyl)benzonitrile] showed a 50% inhibitory concentration (IC50) of 47 nM.
